Among the data in patent US20220144854A1, “MACROCYCLIC COMPOUNDS” (ZENO MANAGEMENT, INC., priority 2019, published 2022) are IC50 values, retold here.

The structures appear in SMILES notation. Read-outs that look alike come from different tables or passages of the source. Some results are limits rather than exact numbers.

In assay [1] the test system is NCI-H929 (ATCC CRL-9068) cells. Put plainly: NCI-H929 cell proliferation assay (CellTiter-Glo). To be noted: 72 h of compound treatment. It counts as cell-based. As for the experimental part:
Cell proliferation was measured using the CellTiter-Glo® Luminescent Cell Viability Assay. The assay involved the addition of a single reagent (CellTiter-Glo® Reagent) directly to cells cultured in serum-supplemented medium.
Each compound evaluated was prepared as a DMSO stock solution (10 mM). Compounds were tested in duplicate on each plate, with a 10-point serial dilution curve (1:3 dilution). Compound treatment ([…]) was added from the compound dilution plate to the cell plate. The highest compound concentration was 10 μM (final), with a 0.1% final DMSO concentration. Plates were then incubated at 37° C., 5% CO2. After 72 h of compound treatment, cell plates were equilibrated at rt for approximately 30 mins. An equi-volume amount of CellTiter-Glo® Reagent (40 μL) was added to each well. Plates were mixed for 2 mins on an orbital shaker to induce cell lysis and then incubated at rt for 10 mins to stabilize the luminescent signal. Luminescence was recorded using an Envision plate reader according to CellTiter-Glo protocol. IC50 of each compound was calculated using GraphPad Prism by nonlinear regression analysis.
Background: Cellular ATP, detected with luciferase, serves as a proxy for viable cell number.

For the next assay, the target named is Mcl-1 (Homo sapiens, UniProt Q07820). Nature of the assay: Mcl-1 Homogeneous Time Resolved Fluorescence (HTRF) binding assay. On the technique in general: TR-FRET usually uses a lanthanide donor and a delayed reading to cut background.
The mark [2] stands for this setting: HTRF, 4 nM Mcl-1, 100 nM FAM-Bak peptide, 10-dose, singlicate, read-out: Mcl-1 IC50.

Chain of Mcl-1 (Q07820 whole entry): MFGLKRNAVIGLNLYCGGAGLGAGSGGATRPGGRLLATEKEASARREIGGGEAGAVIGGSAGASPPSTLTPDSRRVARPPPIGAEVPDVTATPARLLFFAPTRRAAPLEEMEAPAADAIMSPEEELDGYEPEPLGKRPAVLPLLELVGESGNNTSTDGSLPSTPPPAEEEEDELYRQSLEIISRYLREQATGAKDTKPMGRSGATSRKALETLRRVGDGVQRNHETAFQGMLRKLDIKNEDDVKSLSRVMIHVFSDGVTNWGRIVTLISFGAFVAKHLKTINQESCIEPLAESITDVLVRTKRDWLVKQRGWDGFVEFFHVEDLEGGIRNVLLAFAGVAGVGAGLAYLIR

As usually defined, the IC50 is the concentration at which inhibition is half-maximal. Consider `Cn1nc2cc1CSc1cc(c3ccccc3c1)OCCCc1c(C(=O)O)n(C)c3c(c(Cl)ccc13)-c1c(nn3c1CCCC3)CSC2` (single isomer, unassigned) [Example 2A, (Z)-1^6-Chloro-1^1,6^1-dimethyl-2^4,2^5,2^6,2^7-tetrahydro-1^1H,6^1H-10-oxa-4,8-dithia-2(3,2)-pyrazolo[1,5-a]pyridina-1(7,3)-indola-6(3,5)-pyrazola-9(3,1)-naphthalenacyclotridecaphane-1^2-carboxylic acid], for which the IC50 in assay [1] is less than 0.1 µM; at Mcl-1 (setting [2]), less than 10 nM.
Take `Cn1nc2cc1CSc1cc(c3ccccc3c1)OCCCc1c(C(=O)O)n(C)c3c(c(Cl)ccc13)-c1c(nn(C)c1C#N)CSC2` (single isomer, unassigned) [Example 1B, (Z)-1^6-Chloro-2^5-cyano-1^1,2^1,6^1-trimethyl-1^1H,2^1H,6^1H-10-oxa-4,8-dithia-1(7,3)-indola-2(4,3),6(3,5)-dipyrazola-9(3,1)-naphthalenacyclotridecaphane-1^2-carboxylic acid]: the values for the IC50 (in assay [1]; at Mcl-1 (setting [2])) were greater than 1 µM and greater than 100 nM, respectively.
For `Cc1nn(C)c2c1-c1c(F)ccc3c(c(C(=O)O)n(C)c13)CCCOc1cc(cc3ccccc13)SCc1cc(nn1CC1CC1)CSC2` (single isomer, unassigned) [Example 18A], the half-inhibitory concentration (IC50) is greater than 1 µM in assay [1] (Homo sapiens, NCI-H929, 72 h) and greater than 100 nM on Mcl-1 (setting [2]).
Regarding `Cc1nn(C23CC(C2)C3)c2c1-c1c(Cl)ccc3c(c(C(=O)O)n(C)c13)CCCOc1cc(cc3ccccc13)SCc1cc(nn1C)CSC2` (single isomer, unassigned) [Example 20B, (Z)-2^1-(Bicyclo[1.1.1]pentan-1-yl)-1^6-chloro-1^1,2^3,6^1-trimethyl-1^1H,2^1H,6^1H-10-oxa-4,8-dithia-1(7,3)-indola-2(4,5),6(3,5)-dipyrazola-9(3,1)-naphthalenacyclotridecaphane-1^2-carboxylic acid], the values for the IC50 (in assay [1]; on Mcl-1 (setting [2])) were less than 0.1 µM and less than 10 nM, respectively.
Consider `Cc1c2c(nn1C)CSCc1cc(n[nH]1)CSc1cc(c3ccccc3c1)OCCCc1c(C(=O)O)n(C)c3c-2c(Cl)ccc13` (single isomer, unassigned) [Example 11B, (Z)-1^6-Chloro-1^1,2^1,2^5-trimethyl-1^1H,2^1H,6^1H-10-oxa-4,8-dithia-1(7,3)-indola-2(4,3),6(3,5)-dipyrazola-9(3,1)-naphthalenacyclotridecaphane-1^2-carboxylic acid], for which the IC50 was less than 0.1 µM in assay [1] (Homo sapiens) and less than 10 nM on Mcl-1 (Mcl-1 IC50 (nM)).
Consider `Cc1nn(C23CC(C2)C3)c2c1-c1c(Cl)ccc3c(c(C(=O)O)n(C)c13)CCCOc1cc(cc3ccccc13)SCc1cc(n[nH]1)CSC2` (single isomer, unassigned) [Example 21B, (Z)-2^1-(Bicyclo[1.1.1]pentan-1-yl)-1^6-chloro-1^1,2^3-dimethyl-1^1H,2^1H,6^1H-10-oxa-4,8-dithia-1(7,3)-indola-2(4,5),6(3,5)-dipyrazola-9(3,1)-naphthalenacyclotridecaphane-1^2-carboxylic acid], for which the IC50 is less than 0.1 µM in assay [1] (Homo sapiens, NCI-H929, 72 h) and less than 10 nM at Mcl-1 (setting [2]).
With `Cn1nc2cc1CSc1cc(c3ccccc3c1)OCCCc1c(C(=O)O)n(C)c3c(c(Cl)ccc13)-c1c(nn3c1CCCC3)CSC2` (single isomer, unassigned) [Example 2B, (Z)-1^6-Chloro-1^1,6^1-dimethyl-2^4,2^5,2^6,2^7-tetrahydro-1^1H,6^1H-10-oxa-4,8-dithia-2(3,2)-pyrazolo[1,5-a]pyridina-1(7,3)-indola-6(3,5)-pyrazola-9(3,1)-naphthalenacyclotridecaphane-1^2-carboxylic acid], the IC50 in assay [1] is greater than 1 µM; on Mcl-1 (setting [2]), 10 to 100 nM.
Take `Cc1nn(C)c2c1-c1c(F)ccc3c(c(C(=O)O)n(C)c13)CCCOc1cc(cc3ccccc13)SCc1cc(nn1C(C)C)CSC2` (single isomer, unassigned) [Example 16A, (Z)-1^6-Fluoro-6^1-isopropyl-1^1,2^1,2^3-trimethyl-1^1H,2^1H,6^1H-10-oxa-4,8-dithia-1(7,3)-indola-2(4,5),6(3,5)-dipyrazola-9(3,1)-naphthalenacyclotridecaphane-1^2-carboxylic acid]: the IC50 was less than 0.1 µM in assay [1] and less than 10 nM at Mcl-1 (setting [2]).
